Patent US8846710B2, “Method of preferentially inducing the biosynthesis of interferon” (3M Innovative Properties Company, priority 2005, dated 2014)

Legend:
[1] = system: tumor necrosis factor (α) (TNF-α); test: Cytokine induction in human cells: TNF-α secreted by PBMC into culture media (ORIGEN M-Series immunoassay); format: cell-based; parameters: key to Maximal Response (pg/mL) TNF / Maximal Response TNF: If any negative values result from background subtraction, the reading is reported as “*”, and is noted as not reliably detectable; conditions: for Minimum Effective Concentration TNF / Maximal Response TNF / minimal effective concentration: human PBMC; for Minimum Effective Concentration TNF: median where tested in more than one experiment; for Maximal Response TNF / Maximal Response (pg/mL) TNF: median; for Maximal Response (pg/mL) TNF: maximal response in dose response curve; for minimal effective concentration: lowest tested concentration inducing TNF-α over usually 40 pg/mL, median where more than one experiment, read-out: Minimum Effective Concentration (μM) TNF
Procedure, shortened: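 Human donor PBMC (final 2×10^6 cells/mL) were incubated 18 to 24 hours at 37° C with compound, usually 30-0.014 μM in 3-fold steps, ≤1% DMSO. Supernatant TNF-α was measured by ORIGEN immunoassay, background-subtracted and reference-adjusted; minimum effective concentration was the lowest concentration exceeding a fixed cytokine threshold.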

interferon (α) (IFN-α) = test: Cytokine induction in human cells: IFN-α secreted by PBMC into culture media (ELISA); format: cell-based; conditions: for Maximal Response IFN / Minimum Effective Concentration IFN / minimal effective concentration: human PBMC; for Maximal Response IFN / Minimum Effective Concentration IFN: median where tested in more than one experiment; for Maximal Response (pg/mL) IFN: maximal response in dose response curve, median; for minimal effective concentration: lowest tested concentration inducing IFN-α over usually 20 pg/mL, median where more than one experiment, read-out: Minimum Effective Concentration (μM) IFN
Procedure, shortened: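 Human donor PBMC, 2×10^6 cells/mL final in RPMI complete, treated 18–24 h at 37 °C, 5% CO2 with 3-fold dilutions (usually 30-0.014 μM), DMSO ≤1%. Supernatant IFN-α by multi-subtype sandwich ELISA, background-subtracted and reference-adjusted; minimum effective concentration = lowest concentration exceeding usually 20 pg/mL.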

[2] = Table 11, * = TNF below experimental background of 40 pg/mL
[3] = Table 7, background-subtracted, reference-adjusted
[4] = Table 10, * = below experimental background level
[5] = Table 12, * = below the experimental background of 40 pg/mL

| SMILES | Minimum Effective Concentration TNF ([1]; Table 11) | Maximal Response TNF [1, 2] | Maximal Response IFN (interferon (α) (IFN-α); Table 11) | Minimum Effective Concentration IFN (interferon (α) (IFN-α); Table 11) | further results |
| --- | --- | --- | --- | --- | --- |
| CCc1nc2c(N)nc3ccccc3c2n1CCCCNS(C)(=O)=O [Analog 49] | 3.33 µM | 679 pg/mL | 2712 pg/mL | 0.04 µM | – |
| CCc1nc2c(N)nc3ccccc3c2n1CC(C)(C)NS(C)(=O)=O [Analog 2, N-[2-(4-Amino-2-ethyl-1H-imidazo[4,5-c]quinolin-1-yl)-1,1-dimethylethyl]methanesulfonamide] | – | 9675 pg/mL | 1096 pg/mL | – | Maximal Response (pg/mL) TNF [1, 3]: 3670 pg/mL; Maximal Response (pg/mL) IFN (interferon (α) (IFN-α); [3]): 831 pg/mL |
| CC(C)(CN)Cn1c(CCO)nc2c(N)nc3ccccc3c21 [Example 129] | 30 µM | 85 pg/mL | 2702 pg/mL | 0.37 µM | – |
| COCOCc1nc2c(N)nc3ccccc3c2n1CC(C)(C)CNC(=O)c1ccccc1 [Analog 95] | 0.37 µM | 1820 pg/mL | 832 pg/mL | 0.04 µM | – |
| CCOCc1nc2c(N)nc3ccccc3c2n1CCCCNC(=O)N1CCOCC1 [Analog 56] | 1.11 µM | 1580 pg/mL | 3433 pg/mL | 0.12 µM | – |
| CCc1nc2c(N)nc3ccccc3c2n1CCCCNC(=O)N1CCOCC1 [Analog 54] | 3.33 µM | 2570 pg/mL | 4975 pg/mL | 0.37 µM | – |
| CC(C)(Cn1c(CCO)nc2c(N)nc3ccccc3c21)NS(C)(=O)=O [Example 6, N-{2-[4-Amino-2-(2-hydroxyethyl)-1H-imidazo[4,5-c]quinolin-1-yl]-1,1-dimethylethyl}methanesulfonamide] | – | * | 6527 pg/mL | – | Maximal Response (pg/mL) IFN (interferon (α) (IFN-α); [3]): 7521 pg/mL |
| CCCC(=O)NCCCCn1c(CO)nc2c(N)nc3cc(-c4cccnc4)ccc3c21 [Example 196] | – | – | – | – | minimal effective concentration ([1]; Table 10): > 30 µM; minimal effective concentration (interferon (α) (IFN-α); Table 10): 0.12 µM |
| CCOCc1nc2c(N)nc3cc(-c4cncc(CO)c4)ccc3c2n1CC(C)C [Analog 28] | – | – | – | – | minimal effective concentration ([1]; Table 10): 0.37 µM; Maximal Response (pg/mL) TNF [1, 4]: 3885 pg/mL; minimal effective concentration (interferon (α) (IFN-α); Table 10): 0.04 µM; Maximal Response (pg/mL) IFN (interferon (α) (IFN-α); [4]): 1263 pg/mL |
| COCCc1nc2c(N)nc3ccccc3c2n1CC(C)(C)CNC(=O)Nc1ccccc1 [Analog 92] | 0.04 µM | 6449 pg/mL | 570 pg/mL | 0.014 µM | – |
| COCCc1nc2c(N)nc3cc(-c4cncc(CO)c4)ccc3c2n1CC(C)C [Analog 27] | – | – | – | – | minimal effective concentration ([1]; Table 10): 0.04 µM; Maximal Response (pg/mL) TNF [1, 4]: 9563 pg/mL; minimal effective concentration (interferon (α) (IFN-α); Table 10): 0.014 µM; Maximal Response (pg/mL) IFN (interferon (α) (IFN-α); [4]): 1332 pg/mL |
| CN(CCOCCn1c(CCO)nc2c(N)nc3ccccc3c21)S(C)(=O)=O [Example 133] | >30 µM | * | 8361 pg/mL | 0.37 µM | – |
| COCCc1nc2c(N)nc3ccccc3c2n1CCCCNC(=O)c1cnc2ccccc2c1 [Analog 115] | 0.04 µM | 9340 pg/mL | 7545 pg/mL | 0.014 µM | – |
| CC(C)(CNC(=O)c1ccccc1)Cn1c(CCO)nc2c(N)nc3ccccc3c21 [Example 124] | 3.33 µM | 1446 pg/mL | 3980 pg/mL | 0.12 µM | – |
| CC(C)C(=O)NCCCn1c(CCO)nc2c(N)nc3ccccc3c21 [Example 141, N-{3-[4-Amino-2-(2-hydroxyethyl)-1H-imidazo[4,5-c]quinolin-1-yl]propyl}-2-methylpropionamide] | – | 243 pg/mL | 14046 pg/mL | – | – |
| CC(C)(Cn1c(CO)nc2c(N)nc3cccnc3c21)NC(=O)C1CCCCC1 [Example 143, N-[2-(4-Amino-2-hydroxymethyl-1H-imidazo[4,5-c][1,5]naphthyridin-1-yl)-1,1-dimethylethyl]cyclohexanecarboxamide] | – | – | – | – | Maximal Response TNF [1, 5]: 798 pg/mL; Maximal Response IFN (interferon (α) (IFN-α); Table 12): 1467 pg/mL |
| COCCc1nc2c(N)nc3cc(-c4cccnc4)ccc3c2n1CC(C)C [Analog 25] | – | – | – | – | minimal effective concentration ([1]; Table 10): 0.04 µM; Maximal Response (pg/mL) TNF [1, 4]: 3151 pg/mL; minimal effective concentration (interferon (α) (IFN-α); Table 10): 0.014 µM; Maximal Response (pg/mL) IFN (interferon (α) (IFN-α); [4]): 1199 pg/mL |
| COCCc1nc2c(N)nc3cc(-c4ccccc4)ccc3c2n1CC(C)(C)O [Analog 23] | – | – | – | – | minimal effective concentration ([1]; Table 10): 0.014 µM; Maximal Response (pg/mL) TNF [1, 4]: 2296 pg/mL; minimal effective concentration (interferon (α) (IFN-α); Table 10): 0.014 µM; Maximal Response (pg/mL) IFN (interferon (α) (IFN-α); [4]): 260 pg/mL |

| SMILES | Minimum Effective Concentration TNF ([1]; Table 11) | Maximal Response TNF [1, 2] | Maximal Response IFN (interferon (α) (IFN-α); Table 11) | Minimum Effective Concentration IFN (interferon (α) (IFN-α); Table 11) | further results |
| --- | --- | --- | --- | --- | --- |
| COCCc1nc2c(N)nc3ccccc3c2n1CCCNS(=O)(=O)c1ccc(C)cc1 [Analog 109] | 0.37 µM | 6169 pg/mL | 638 pg/mL | 0.04 µM | – |
| CCCc1nc2c(N)nc3cc(-c4cccnc4)ccc3c2n1CCCCNC(=O)C(C)C [Analog 38] | – | – | – | – | minimal effective concentration ([1]; Table 10): 0.37 µM; Maximal Response (pg/mL) TNF [1, 4]: 960 pg/mL; minimal effective concentration (interferon (α) (IFN-α); Table 10): 0.12 µM; Maximal Response (pg/mL) IFN (interferon (α) (IFN-α); [4]): 1610 pg/mL |
| CCOCc1nc2c(N)nc3ccccc3c2n1CC(C)(C)CS(C)(=O)=O [Analog 124] | 0.37 µM | 9513 pg/mL | 1924 pg/mL | 0.12 µM | – |
| COCCc1nc2c(N)nc3ccccc3c2n1CCCCCCCCNC(=O)Nc1ccccc1 [Analog 117] | 0.12 µM | 1372 pg/mL | 1257 pg/mL | 0.014 µM | – |
| CC(C)Cn1c(CCO)nc2c(N)nc3cc(-c4cncc(CO)c4)ccc3c21 [Example 159] | – | – | – | – | minimal effective concentration ([1]; Table 10): 10 µM; minimal effective concentration (interferon (α) (IFN-α); Table 10): 0.12 µM |
| Nc1nc2ccccc2c2c1nc(CCO)n2CCCNC(=O)c1ccccc1 [Example 132] | >30 µM | * | 8361 pg/mL | 0.37 µM | – |
| CCCCNC(=O)NCCCn1c(CCO)nc2c(N)nc3ccccc3c21 [Example 126] | >30 µM | * | 8361 pg/mL | 1.11 µM | – |
| Cc1nc2c(N)nc3ccccc3c2n1CCCNC(=O)N1CCOCC1 [Analog 87] | 30 µM | 463 pg/mL | 4843 pg/mL | 0.37 µM | – |
| Cc1nc2c(N)nc3ccccc3c2n1CCCNC(=O)NC(C)C [Analog 81] | 10 µM | 490 pg/mL | 1134 pg/mL | 3.33 µM | – |
| Cc1nc2c(N)nc3ccccc3c2n1CCCNS(C)(=O)=O [Aanalog 58] | 30 µM | * | 2778 pg/mL | 1.11 µM | – |
| CC(C)(F)Cn1c(CCO)nc2c(N)nc3cccnc3c21 [Example 552, 2-[4-Amino-1-(2-fluoro-2-methylpropyl)-1H-imidazo[4,5-c][1,5]naphthyridin-2-yl]ethanol] | – | – | – | – | Maximal Response TNF [1, 5]: 84 pg/mL; Maximal Response IFN (interferon (α) (IFN-α); Table 12): 1646 pg/mL |
| COCCc1nc2c(N)nc3ccccc3c2n1CCCCNC(=O)c1nccc2ccccc12 [Analog 112] | 0.04 µM | 1462 pg/mL | 2127 pg/mL | 0.014 µM | – |
| COCCc1nc2c(N)nc3ccccc3c2n1CCCCNS(C)(=O)=O [Analog 52] | 0.37 µM | 1931 pg/mL | 7594 pg/mL | 0.014 µM | – |
| Cc1nc2c(N)nc3cccnc3c2n1CC(C)C [Analog 133, 2-methyl-1-(2-methylpropyl)-1H-imidazo[4,5-c][1,5]naphthyridin-4-amine] | – | – | – | – | Maximal Response TNF [1, 5]: 699 pg/mL; Maximal Response IFN (interferon (α) (IFN-α); Table 12): 1117 pg/mL |
| CCOCc1nc2c(N)nc3cc(-c4cccnc4)ccc3c2n1CCCCNC(=O)C1CCCC1 [Analog 35] | – | – | – | – | minimal effective concentration ([1]; Table 10): 0.37 µM; Maximal Response (pg/mL) TNF [1, 4]: 1366 pg/mL; minimal effective concentration (interferon (α) (IFN-α); Table 10): 0.04 µM; Maximal Response (pg/mL) IFN (interferon (α) (IFN-α); [4]): 969 pg/mL |
| CCc1nc2c(N)nc3ccccc3c2n1CC(C)(C)CNC(=O)Nc1ccccc1 [Analog 90] | 0.12 µM | 2098 pg/mL | 922 pg/mL | 0.014 µM | – |
| CCCNC(=O)NCCCCn1c(CO)nc2c(N)nc3cc(-c4cccnc4)ccc3c21 [Example 195] | – | – | – | – | Maximal Response (pg/mL) TNF [1, 4]: 81 pg/mL; Maximal Response (pg/mL) IFN (interferon (α) (IFN-α); [4]): 5089 pg/mL |
